Data published in patent publication US10059713B2 (Takeda Pharmaceutical Company Limited, priority 2014, dated 2018).

Biological target: human GPR43 (Homo sapiens (Human), UniProt O15552)
Assay: Ca-Flux functional assay: determination of agonist/positive allosteric modulator (PAM) activity
Assay type: cell-based
Conditions: CHO-K1 Gα16 cells stably expressing human GPR43; compound added with EC20 sodium acetate; intracellular Ca2+ by FLIPR; does not distinguish agonist from PAM
Method: Ca-Flux Functional Assay: Determination of Agonist/Positive Allosteric Modulator (PAM) Activity
GPR43 agonist/PAM activity was determined by measuring changes in intracellular calcium levels using a Ca^2+ sensitive fluorescent dye. The changes in fluorescent signal were monitored by FLIPR (manufactured by Molecular Devices). GPR43 mediated increases in intracellular Ca^2+ concentration were readily detected upon activation with sodium acetate. Prior to the assay (24 hours), CHO-K1 Gα16 cells stably expressing human GPR43 were-seeded in cell culture medium in black, clear-bottom 384-well plates (Corning Inc) and grown overnight at 37° C., 5% CO2. On the day of the assay, cell culture media was removed and cells were loaded with Calcium 5 Dye (Molecular Devices) diluted in HBSS containing 25 mM HEPES, 2.5 mM Probenecid, 0.1% BSA for 1 hour at 37° C., 5% CO2. 10 point half log concentration response curves of sodium acetate from 10 mM were conducted prior to the testing of compounds to calculate the sodium acetate concentration that produces 20% of the maximal response (EC20). Test compounds (at 10 point half log concentration response curves from 10 μM) were added in the presence of sodium acetate to achieve a final concentration that produces approximately 20% maximal response as calculated from the previous experiment. The changes in fluorescent signal were monitored by FLIPR upon addition of the compound/EC20 sodium acetate mix. The EC50 values were determined from ten point concentration response curves. Curves were generated using the average of two wells for each data point.
The above assay detects both GPR43 receptor agonists and positive allosteric modulators of the GPR43 receptor, without distinguishing between the two. Activity in either regard is useful in the treatment of conditions associated with GPR43 receptor activity.

Sequence of human GPR43 (O15552 whole entry): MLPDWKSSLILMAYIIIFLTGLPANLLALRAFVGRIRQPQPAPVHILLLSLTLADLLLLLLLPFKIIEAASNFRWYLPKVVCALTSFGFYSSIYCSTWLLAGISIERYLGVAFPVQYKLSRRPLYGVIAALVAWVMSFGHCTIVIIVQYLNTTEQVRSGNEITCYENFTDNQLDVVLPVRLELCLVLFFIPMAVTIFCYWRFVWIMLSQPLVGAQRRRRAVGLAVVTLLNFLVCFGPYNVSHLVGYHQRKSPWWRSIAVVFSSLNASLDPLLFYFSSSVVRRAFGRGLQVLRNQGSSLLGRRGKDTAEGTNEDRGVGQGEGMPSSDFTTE

SMILES	EC50 [µM]
CC1CN(c2nc(C(F)(F)F)nc3c(S(=O)(=O)c4cccc(F)c4)c(N)[nH]c23)CCO1 (stereo not shown) [Example 265, 7-(3-fluorobenzenesulfonyl)-4-(2-methylmorpholin-4-yl)-2-(trifluoromethyl)-5H-pyrrolo[3,2-d]pyrimidin-6-amine]	0.068
Nc1[nH]c2c(N3CCCCC3)ncnc2c1S(=O)(=O)c1ccccc1 [Example 7, 7-(benzenesulfonyl)-4-(piperidin-1-yl)-5H-pyrrolo[3,2-d]pyrimidin-6-amine]	0.047
Cc1nc(OC(C)C)c2[nH]c(N)c(S(=O)(=O)c3ccccc3F)c2n1 [Example 272, 7-(2-fluorobenzenesulfonyl)-2-methyl-4-(propan-2-yloxy)-5H-pyrrolo[3,2-d]pyrimidin-6-amine]	0.034
Cc1nc(N2CCOC(C)C2)c2[nH]c(N)c(S(=O)(=O)c3ccccc3)c2n1 (stereo not shown) [Example 111, 7-(benzenesulfonyl)-2-methyl-4-(2-methylmorpholin-4-yl)-5H-pyrrolo[3,2-d]pyrimidin-6-amine]	0.019
Cc1nc(N2CCOC(C)C2)c2[nH]c(N)c(S(=O)(=O)c3cccc(F)c3)c2n1 (stereo not shown) [Example 180, 7-(3-fluorobenzenesulfonyl)-2-methyl-4-(2-methylmorpholin-4-yl)-5H-pyrrolo[3,2-d]pyrimidin-6-amine]	0.043
CC1CCCN(c2ncnc3c(S(=O)(=O)c4ccccc4)c(N)[nH]c23)C1 (stereo not shown) [Example 58, 7-(benzenesulfonyl)-4-(3-methylpiperidin-1-yl)-5H-pyrrolo[3,2-d]pyrimidin-6-amine]	0.017
CN(Cc1cccc(Cl)c1)c1ncnc2c(S(=O)(=O)c3ccccc3)c(N)[nH]c12 [Example 90, 7-(benzenesulfonyl)-4-N-[(3-chlorophenyl)methyl]-4-N-methyl-5H-pyrrolo[3,2-d]pyrimidine-4,6-diamine]	0.041
CC1CCN(c2ncnc3c(S(=O)(=O)c4ccccc4)c(N)[nH]c23)CC1 [Example 59, 7-(benzenesulfonyl)-4-(4-methylpiperidin-1-yl)-5H-pyrrolo[3,2-d]pyrimidin-6-amine]	0.057
Cc1nc(N2CCO[C@H](C(F)(F)F)C2)c2[nH]c(N)c(S(=O)(=O)c3c(F)cccc3F)c2n1 [Example 294, 7-(2,6-Difluorobenzenesulfonyl)-2-methyl-4-[(2S)-2-(trifluoromethyl)morpholin-4-yl]-5H-pyrrolo[3,2-d]pyrimidin-6-amine]	0.004
Cc1nc(N2CCO[C@H](C(F)(F)F)C2)c2[nH]c(N)c(S(=O)(=O)c3ccc(Cl)cc3F)c2n1 [Example 284, 7-(4-chloro-2-fluorobenzenesulfonyl)-2-methyl-4-[(2S)-2-(trifluoromethyl)morpholin-4-yl]-5H-pyrrolo[3,2-d]pyrimidin-6-amine]	0.002
Nc1[nH]c2c(OCc3ccccc3)ncnc2c1S(=O)(=O)c1ccccc1 [Example 168, 7-(benzenesulfonyl)-4-(benzyloxy)-5H-pyrrolo[3,2-d]pyrimidin-6-amine]	0.134
CCN(CC1CCOCC1)c1ncnc2c(S(=O)(=O)c3ccccc3)c(N)[nH]c12 [Example 188, 7-(benzenesulfonyl)-4-N-ethyl-4-N-(oxan-4-ylmethyl)-5H-pyrrolo[3,2-d]pyrimidine-4,6-diamine]	2.66
Nc1[nH]c2c(C3=CCCCC3)ncnc2c1S(=O)(=O)c1ccc(Cl)cc1 [Example 21, 7-[(4-chlorobenzene)sulfonyl]-4-(cyclohex-1-en-1-yl)-5H-pyrrolo[3,2-d]pyrimidin-6-amine]	0.054
Nc1[nH]c2c(OCC3CCCCC3)ncnc2c1S(=O)(=O)c1ccccc1 [Example 165, 7-(benzenesulfonyl)-4-(cyclohexylmethoxy)-5H-pyrrolo[3,2-d]pyrimidin-6-amine]	0.073
COCCOc1ncnc2c(S(=O)(=O)c3ccccc3)c(N)[nH]c12 [Example 174, 7-(benzenesulfonyl)-4-(2-methoxyethoxy)-5H-pyrrolo[3,2-d]pyrimidin-6-amine]	6.62
Nc1[nH]c2c(NCC3CC3)ncnc2c1S(=O)(=O)c1ccccc1 [Example 70, 7-(benzenesulfonyl)-4-N-(cyclopropylmethyl)-5H-pyrrolo[3,2-d]pyrimidine-4,6-diamine]	0.763
Nc1[nH]c2c(N3CCC(F)(F)CC3)ncnc2c1S(=O)(=O)c1ccccc1 [Example 24, 7-(benzenesulfonyl)-4-(4,4-difluoropiperidin-1-yl)-5H-pyrrolo[3,2-d]pyrimidin-6-amine]	0.019

SMILES	EC50 [µM]
O=S(=O)(c1ccccc1)c1c(NC2CCC(F)(F)CC2)[nH]c2ncccc12 [Example 1, 3-(benzenesulfonyl)-N-(4,4-difluorocyclohexyl)-1H-pyrrolo[2,3-b]pyridin-2-amine]	5.5
Nc1[nH]c2c(C3CCCCC3)ncnc2c1S(=O)(=O)c1ccccc1F [Example 89, 4-cyclohexyl-7-(2-fluorobenzenesulfonyl)-5H-pyrrolo[3,2-d]pyrimidin-6-amine]	0.011
Cc1nc(N2CCOC3(CCCC3)C2)c2[nH]c(N)c(S(=O)(=O)c3cccc(F)c3)c2n1 [Example 199, 7-(3-fluorobenzenesulfonyl)-2-methyl-4-{6-oxa-9-azaspiro[4.5]decan-9-yl}-5H-pyrrolo[3,2-d]pyrimidin-6-amine]	0.025
C[C@@H]1CN(c2ncnc3c(S(=O)(=O)c4ccccc4)c(N)[nH]c23)C[C@@H](C)O1 [Example 87, 7-(benzenesulfonyl)-4-[(2R,6R)-2,6-dimethylmorpholin-4-yl]-5H-pyrrolo[3,2-d]pyrimidin-6-amine]	0.034
Cc1nc(N2CCOC(C)C2)c2[nH]c(N)c(S(=O)(=O)c3ccccc3F)c2n1 (stereo not shown) [Example 176, 7-(2-fluorobenzenesulfonyl)-2-methyl-4-(2-methylmorpholin-4-yl)-5H-pyrrolo[3,2-d]pyrimidin-6-amine]	0.008
Cc1nc(OC2CCC(F)(F)CC2)c2[nH]c(N)c(S(=O)(=O)c3ccccc3)c2n1 [Example 254, 7-(benzenesulfonyl)-4-[(4,4-difluorocyclohexyl)oxy]-2-methyl-5H-pyrrolo[3,2-d]pyrimidin-6-amine]	0.029
COc1ccc(S(=O)(=O)c2c(N)[nH]c3c(C4CCCC4)ncnc23)cc1 [Example 73, 4-cyclopentyl-7-(4-methoxybenzenesulfonyl)-5H-pyrrolo[3,2-d]pyrimidin-6-amine]	0.118
Nc1[nH]c2c(OC3CCC3)ncnc2c1S(=O)(=O)c1ccccc1 [Example 167, 7-(benzenesulfonyl)-4-cyclobutoxy-5H-pyrrolo[3,2-d]pyrimidin-6-amine]	0.076
CCN(CC1CCCCC1)c1ncnc2c(S(=O)(=O)c3ccccc3)c(N)[nH]c12 [Example 83, 7-(benzenesulfonyl)-4-N-(cyclohexylmethyl)-4-N-ethyl-5H-pyrrolo[3,2-d]pyrimidine-4,6-diamine]	0.1
Cc1cc(CN(C)c2ncnc3c(S(=O)(=O)c4ccccc4)c(N)[nH]c23)no1 [Example 99, 7-(benzenesulfonyl)-4-N-methyl-4-N-[(5-methyl-1,2-oxazol-3-yl)methyl]-5H-pyrrolo[3,2-d]pyrimidine-4,6-diamine]	4.67
COc1ccc(S(=O)(=O)c2c(N)[nH]c3c(N4CCOC(C)(C)C4)nc(C)nc23)cc1 [Example 204, 4-(2,2-dimethylmorpholin-4-yl)-7-(4-methoxybenzenesulfonyl)-2-methyl-5H-pyrrolo[3,2-d]pyrimidin-6-amine]	0.015
C[C@H]1CN(c2ncnc3c(S(=O)(=O)c4ccccc4)c(N)[nH]c23)CCO1 [Example 86, 7-(benzenesulfonyl)-4-[(2S)-2-methylmorpholin-4-yl]-5H-pyrrolo[3,2-d]pyrimidin-6-amine]	0.019
Cc1nc(N2CCOC(C)(C(F)(F)F)C2)c2[nH]c(N)c(S(=O)(=O)c3ccccc3F)c2n1 (stereo not shown) [Example 303, 7-(2-fluorobenzenesulfonyl)-2-methyl-4-[2-methyl-2-(trifluoromethyl)morpholin-4-yl]-5H-pyrrolo[3,2-d]pyrimidin-6-amine]	0.003
Cc1nc(N2CCOC3(CC3)C2)c2[nH]c(N)c(S(=O)(=O)c3ccccc3)c2n1 [Example 205, 7-(benzenesulfonyl)-2-methyl-4-{4-oxa-7-azaspiro[2.5]octan-7-yl}-5H-pyrrolo[3,2-d]pyrimidin-6-amine]	0.007
C=C(C)c1cncc2c(S(=O)(=O)c3ccccc3)c(N)[nH]c12 [Example 100, 3-(benzenesulfonyl)-7-(prop-1-en-2-yl)-1H-pyrrolo[3,2-c]pyridin-2-amine]	0.145
Cc1nc(COc2ncnc3c(S(=O)(=O)c4ccccc4)c(N)[nH]c23)c(C)o1 [Example 163, 7-(benzenesulfonyl)-4-[(dimethyl-1,3-oxazol-4-yl)methoxy]-5H-pyrrolo[3,2-d]pyrimidin-6-amine]	6.26
Cc1nc(N2CCOC(C)(C)C2)c2[nH]c(N)c(S(=O)(=O)c3ccccc3F)c2n1 [Example 185, 4-(2,2-dimethylmorpholin-4-yl)-7-(2-fluorobenzenesulfonyl)-2-methyl-5H-pyrrolo[3,2-d]pyrimidin-6-amine]	0.006
